In patent publication US5681695A, “Method for increasing specificity in competitive immunoassays” (priority 1994, dated 1997):

Legend:
anti-HBc [1] = assay: CORAB radioimmunoassay for anti-HBc (competitive), with reducing agent added to the sample; format: binding, human; settings: for inhibition in the Corab assay: presence of metabisulfite
Procedure: 0.1 ml samples in groups I and II were placed in duplicate reaction wells, along with negative and positive controls, and 10 ul of 0.3% 2-mercaptoethanol (2-ME) in H2 O was added to one each of the duplicates, while 10 ul H2 O was added to the other. 0.1 ml of ^125 I-labeled anti-HBc was added to all wells, followed by an HBcAg-coated 1/4 inch polystyrene bead to all wells. Trays were gently shaken and allowed to incubate overnight at room temperature. All beads were washed 3 times with distilled water and transferred to test tubes for counting for 1 minute in a gamma scintillation counter. The positivity or negativity of each was calculated, as was the degree (%) inhibition from negative control for each specimen both with and without reducing reagent according to the formula: [formula] By this calculation, a sample giving a value equal to or greater than 50% is judged as positive in the test. The effect of the addition of the reducing reagents to the specimens was evaluated by several criteria:
Plasma samples designated 25, 31, 76, 91, 177 and 189 were tested with a commercially available anti-HBc kit (Corab®, Abbott Laboratories, North Chicago, Ill.) with and without addition of 10 ul of a reducing agent, 0.5M sodium metabisulfite. Also, as in Example 4, samples were tested with and without addition of 26.3 ul of a positive anti-HBc sample (Panel 5). […] Samples 31 and 91 are discrepant samples which are confirmed as negative upon addition of the reducing agent.

anti-HBc [2] = assay: Microparticle chemiluminescence immunoassay for anti-HBc, with cysteine; format: binding, human
Procedure: Recombinant DNA hepatitis B core antigen (rHBcAg) was coupled to carboxylated polystyrene latex microparticles (Seragen Diagnostics, Indianapolis, Ind., 0.188 um) using a two-step procedure. First, purified polyclonal human anti-HBc at 2.7 ug/mg latex particles in the presence of normal human serum (1.0 ul/mg) was coupled using 1-ethyl-3-(3-dimethylaminopropyl) carbodiimide (EDAC, 43 ug/mg) in 0.015M MES buffer (2-[N-morpholino] ethanesulfonic acid), pH 4.8, for 2 hours at room temperature. Bangs, "Uniform Latex Particles", Seragen Diagnostics, 1984. The antibody undercoated particles were then washed three times in 0.1M Tris buffer, pH 7.2, containing 0.9% NaCl, 0.03% EDTA and 0.05% Tween-20 by centrifugation (40,000×g for 20 minutes) and resuspended in 0.1M Tris buffer, pH 7.2, containing 0.9% NaCl, 0.03% EDTA and 0.03% bovine serum albumin. rHBcAg (0.2 ug/mg) was then immunologically adsorbed on the undercoated particles by slow rotation overnight at room temperature. Particles were washed three times as before and dispersed through a 25 gauge needle and stored in 0.01M sodium phosphate, pH 7.2, containing 0.15M NaCl, 0.1% bovine serum albumin, 0.01% Tween-20 and 0.1% sodium azide (Microparticle Diluent). Percent solids was determined by light scattering at 500 nanometers. Coated particles were stored concentrated (typically 5-10% solids) and diluted in storage buffer to a working concentration (0.036%) before each assay. In an alternative method, rHBcAg was coupled directly to the microparticles by the EDAC method. The anti-HBc undercoating method is preferred.
Acridinium-labeled purified anti-HBc (human) was prepared using an EDAC coupling procedure on the active ester. Briefly, 1 mg of B-alanine acridinium was dissolved in 100 ul anhydrous DMF and activated by sequential addition of 50 ul N-hydroxylsuccinimide (NHS) (5.75 mg/ml) and 50 ul EDAC (19.2 mg/ml) (molar ratio NHS:EDAC=1:2). The reaction proceeded in the dark at room temperature for 30 minutes. Protein A purified human anti-HBc was dialyzed (3×) against PBS, 0.5% CHAPS, pH 6.3, overnight at 2°-8° C. Activated acridinium was added to dialyzed antibody (30:1 molar excess) and the reaction mixture stirred for 30 minutes at room temperature. After dialysis versus the same buffer, the preparation was centrifuged and the supernatant chromatographed on a Beckman TSK 250 HPLC column equilibrated with the same buffer. Individual fractions (1 ml) were analyzed by UV spectroscopy at 369 and 280 nm to determine incorparation of acridinium (typically 3:1).
100 ul duplicates of samples including a sensitivity panel sample (1.23 Paul Erhlich Units/ml, Panel 7), two samples, S9 and S14, which were similar in anti-HBc reactivity to Group II samples described above, and negative and positive controls were added to a microtiter plate. […] 50 ul of the HBcAg-coated microparticles (0.036% solids) were added to all wells. This reaction mixture was incubated for 20 minutes in a 40° water bath.
166 ul of each reaction mixture was transferred to a microparticle capture/flow-through glass fiber filter funnel (Abbott Laboratories, North Chicago, Ill.) which was prewetted with 50 ul of 0.1% Tween-20. Each capture membrane was then washed twice with 50 ul of 0.1% Tween-20. 20 ul of the acridinium-labeled anti-HBc (375 ng/ml) was added to the surface of each capture membrane and incubated at room temperature for 20 minutes. The capture membranes were then washed twice with 100 ul and once with 50 ul of 0.1% Tween-20.
The membranes were then transferred to a chemiluminescence reader where approximately 100 ul of a trigger solution comprising 0.3% H2 O2 in 0.25N NaOH was delivered to each membrane. The amount of light generated by the acridinium-labelled reagent bound to the microparticles was determined and is inversely proportional to the amount of anti-HBc present in the sample. […] There was a 10-20% signal loss in the negative control in the presence of cysteine. […]

anti-HBc [3] = assay: Sephacryl S-300 fractions assayed for anti-HBc activity by microparticle assay, with cysteine; format: binding
Procedure: Briefly, 2 ml of recalcified Sample 209 was applied to a Sephacryl S-300 column (2.5×50 cm) equilibrated with PBS. 2.5 ml fractions were collected at a flow rate of 20 ml/hr. Fractions were assayed using the microparticle assay of Example 3 except that an approximately 5 fold increase in sensitivity was implemented by using increasing incubation time and decreasing the amount of anti-HBc conjugate. […] The first inhibitory peak was not detected when assayed in the presence of cysteine. The second and major inhibitory peak, which co-eluted with the IgG protein peak, was unaffected by cysteine treatment. The immunoglobulin G associated anti-HBc activity is specific for non-acute hepatitis B infection.
3 ml of a borderline positive sample (Sample 9) was tested according to the procedure of Example 9. […] In the absence of reducing agent, a single inhibitory peak was seen near the void volume of the column. This peak was not detected when assayed in the presence of cysteine, and was clearly resolved form the IgG protein peak. This non-IgG reactivity is not believed to be a result of Hepatitis B infection and is therefore nonspecific.

## O=S([O-])S(=O)(=O)[O-].[Na+].[Na+] [MBS, sodium metabisulfite]
anti-HBc [1]; 10 ul 0.5M MBS, NC
  <cpm>: 20856 cpm
anti-HBc [1]; 10 ul 0.5M MBS, NC spiked with Panel 5
  % I (percent inhibition): 73.6%
anti-HBc [1]; 10 ul 0.5M MBS, PC
  <cpm>: 350 cpm
anti-HBc [1]; 10 ul 0.5M MBS, Panel 7
  % I (percent inhibition): 71.0%
anti-HBc [1]; 10 ul 0.5M MBS, mean of samples spiked with Panel 5
  <Sx*> % I: 74.8%
anti-HBc [1]; 10 ul 0.5M MBS, mean of unspiked samples
  <Sx> % I: 11.4%
anti-HBc [1]; 10 ul 0.5M MBS, sample OBI 25
  % I (percent inhibition): 7.6%
anti-HBc [1]; 10 ul 0.5M MBS, sample OBI 25 spiked with Panel 5
  % I (percent inhibition): 74.3%
anti-HBc [1]; 10 ul 0.5M MBS, sample OBI 31
  % I (percent inhibition): 10.4%
anti-HBc [1]; 10 ul 0.5M MBS, sample OBI 31 spiked with Panel 5
  % I (percent inhibition): 75.6%
anti-HBc [1]; 10 ul 0.5M MBS, sample OBI 76
  % I (percent inhibition): 5.8%
anti-HBc [1]; 10 ul 0.5M MBS, sample OBI 76 spiked with Panel 5
  % I (percent inhibition): 74.2%
anti-HBc [1]; 10 ul 0.5M MBS, sample OBI 91
  % I (percent inhibition): 10.8%
anti-HBc [1]; 10 ul 0.5M MBS, sample OBI 91 spiked with Panel 5
  % I (percent inhibition): 75.0%
anti-HBc [1]; 10 ul 0.5M MBS, sample OBI 177
  % I (percent inhibition): 31.5%
anti-HBc [1]; 10 ul 0.5M MBS, sample OBI 177 spiked with Panel 5
  % I (percent inhibition): 74.4%
anti-HBc [1]; 10 ul 0.5M MBS, sample OBI 189
  % I (percent inhibition): 2.5%
anti-HBc [1]; 10 ul 0.5M MBS, sample OBI 189 spiked with Panel 5
  % I (percent inhibition): 75.1%
anti-HBc [1]; Panel 7 and samples spiked with Panel 5
  effect on anti-HBc positive samples: not affected
anti-HBc [1]; Table I
  absolute values for negative and positive controls: not affected significantly
anti-HBc [1]; Sample 9
  inhibition in the Corab assay: 5.2%
anti-HBc [1]; Sample 209
  inhibition in the Corab assay: 86.3%

## N[C@@H](CS)C(=O)O [cysteine]
anti-HBc [2]; 200 mM cysteine solution (EDTA, DTT), Negative Control
  COUNTS: 23992 COUNTS
anti-HBc [2]; 200 mM cysteine solution (EDTA, DTT), Panel 7
  % I (percent inhibition): 76.3%
anti-HBc [2]; 200 mM cysteine solution (EDTA, DTT), Plasma S9
  % I (percent inhibition): 3.2%
anti-HBc [2]; 200 mM cysteine solution (EDTA, DTT), Plasma S14
  % I (percent inhibition): 3.0%
anti-HBc [2]; 200 mM cysteine solution (EDTA, DTT), Positive Control
  COUNTS: 5000 COUNTS
anti-HBc [2]; 10 ul 0.75M cysteine fresh, NC
  <cpm>: 20856 cpm
anti-HBc [2]; 10 ul 0.75M cysteine fresh, NC spiked with Panel 5
  % I (percent inhibition): 80.8%
anti-HBc [2]; 10 ul 0.75M cysteine fresh, PC
  <cpm>: 4035 cpm
anti-HBc [2]; 10 ul 0.75M cysteine fresh, Panel 7
  % I (percent inhibition): 80.7%
anti-HBc [2]; 10 ul 0.75M cysteine fresh, plasma samples spiked with Panel 5
  average percent inhibition: 71.5%
anti-HBc [2]; 10 ul 0.75M cysteine fresh, sample 52
  % I (percent inhibition): 6.2%
anti-HBc [2]; 10 ul 0.75M cysteine fresh, sample 52 spiked with Panel 5
  % I (percent inhibition): 67.9%
anti-HBc [2]; 10 ul 0.75M cysteine fresh, sample 71
  % I (percent inhibition): 36.0%
anti-HBc [2]; 10 ul 0.75M cysteine fresh, sample 71 spiked with Panel 5
  % I (percent inhibition): 69.9%
anti-HBc [2]; 10 ul 0.75M cysteine fresh, sample 166
  % I (percent inhibition): 54.0%
anti-HBc [2]; 10 ul 0.75M cysteine fresh, sample 166 spiked with Panel 5
  % I (percent inhibition): 80.8%
anti-HBc [2]; 10 ul 0.75M cysteine fresh, sample 189
  % I (percent inhibition): 11.1%
anti-HBc [2]; 10 ul 0.75M cysteine fresh, sample 189 spiked with Panel 5
  % I (percent inhibition): 70.5%
anti-HBc [2]; 10 ul 0.75M cysteine fresh, sample 277
  % I (percent inhibition): -2.5%
anti-HBc [2]; 10 ul 0.75M cysteine fresh, sample 277 spiked with Panel 5
  % I (percent inhibition): 68.6%
anti-HBc [2]; 10 ul 0.75M cysteine fresh, unspiked plasma samples
  average percent inhibition: 21.0%
anti-HBc [2]; Example 5, + cysteine reagent, Negative control
  mean counts: 24494 counts
anti-HBc [2]; Example 5, + cysteine reagent, Panel 5
  % I (percent inhibition): 86.7%
anti-HBc [2]; Example 5, + cysteine reagent, Panel 6
  % I (percent inhibition): 85.3%
anti-HBc [2]; Example 5, + cysteine reagent, Panel 7
  % I (percent inhibition): 77.2%
anti-HBc [2]; Example 5, + cysteine reagent, Panel 8
  % I (percent inhibition): 53.5%
anti-HBc [2]; Example 5, + cysteine reagent, Panel 9
  % I (percent inhibition): 21.0%
anti-HBc [2]; Example 5, + cysteine reagent, Positive control
  mean counts: 5678 counts
anti-HBc [2]; S9 and S14, presence of cysteine
  activity (interfering factor) in Group II type samples: eliminated
anti-HBc [2]; presence of cysteine
  signal loss in the negative control: 10-20%
anti-HBc [3]; Sample 9, presence of cysteine
  single inhibitory peak near the void volume: not detected
anti-HBc [3]; Sample 209, cysteine treatment
  second and major inhibitory peak (co-eluted with IgG): unaffected
anti-HBc [3]; Sample 209, presence of cysteine
  first inhibitory peak: not detected
